Source: ChEMBL document CHEMBL1909046, “DrugMatrix in vitro pharmacology data”

Legend:
[1] = biological target: T1, Alpha-1D adrenergic receptor (Homo sapiens, UniProt P25100); type: cell membranes, HEK293, Membrane; conditions: for Ki: read-out: Ki; on all read-outs here: in other assays of this panel Not Active means under 50% inhibition at 10 µM
T1 sequence (P25100 whole entry): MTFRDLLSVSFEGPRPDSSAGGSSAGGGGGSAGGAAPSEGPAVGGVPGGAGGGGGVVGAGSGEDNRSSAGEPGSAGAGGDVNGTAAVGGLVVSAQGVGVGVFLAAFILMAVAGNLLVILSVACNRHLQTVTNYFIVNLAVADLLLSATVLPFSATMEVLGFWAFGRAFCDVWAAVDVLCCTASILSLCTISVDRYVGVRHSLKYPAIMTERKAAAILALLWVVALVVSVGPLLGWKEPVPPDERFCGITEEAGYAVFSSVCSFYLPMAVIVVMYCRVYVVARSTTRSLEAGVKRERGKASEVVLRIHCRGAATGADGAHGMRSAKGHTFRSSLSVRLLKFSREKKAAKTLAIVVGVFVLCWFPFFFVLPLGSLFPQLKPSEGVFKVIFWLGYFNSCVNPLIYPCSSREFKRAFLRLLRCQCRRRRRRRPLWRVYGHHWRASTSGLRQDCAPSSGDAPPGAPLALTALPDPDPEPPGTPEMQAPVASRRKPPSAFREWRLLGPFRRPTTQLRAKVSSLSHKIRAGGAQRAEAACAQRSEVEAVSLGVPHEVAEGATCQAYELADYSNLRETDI

[2] = biological target: 5-hydroxytryptamine receptor 6 (Homo sapiens, UniProt P50406); type: cell membranes, HeLa, Membrane; conditions: for Ki: read-out: Ki; on all read-outs here: in other assays of this panel Not Active means under 50% inhibition at 10 µM
Sequence of 5-hydroxytryptamine receptor 6 (P50406 whole entry): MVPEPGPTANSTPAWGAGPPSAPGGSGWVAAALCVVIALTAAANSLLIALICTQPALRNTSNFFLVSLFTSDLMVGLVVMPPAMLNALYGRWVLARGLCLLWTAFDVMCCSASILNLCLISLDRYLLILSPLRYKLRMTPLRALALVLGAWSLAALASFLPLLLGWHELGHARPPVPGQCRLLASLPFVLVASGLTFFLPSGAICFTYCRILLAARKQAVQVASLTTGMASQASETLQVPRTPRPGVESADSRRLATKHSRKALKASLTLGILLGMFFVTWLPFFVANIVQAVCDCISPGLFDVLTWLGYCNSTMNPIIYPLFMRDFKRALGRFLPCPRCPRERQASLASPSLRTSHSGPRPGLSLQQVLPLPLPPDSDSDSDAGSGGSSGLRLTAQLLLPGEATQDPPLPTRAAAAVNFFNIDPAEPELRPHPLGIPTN

[3] = biological target: Adenosine receptor A2a (Homo sapiens, UniProt P29274); assay: DRUGMATRIX: Adenosine A2A radioligand binding (ligand: […]); type: cell membranes, HEK293, Membrane; conditions: hek293; Not Active = under 50% inhibition at 10 µM
Sequence of Adenosine receptor A2a (P29274 whole entry): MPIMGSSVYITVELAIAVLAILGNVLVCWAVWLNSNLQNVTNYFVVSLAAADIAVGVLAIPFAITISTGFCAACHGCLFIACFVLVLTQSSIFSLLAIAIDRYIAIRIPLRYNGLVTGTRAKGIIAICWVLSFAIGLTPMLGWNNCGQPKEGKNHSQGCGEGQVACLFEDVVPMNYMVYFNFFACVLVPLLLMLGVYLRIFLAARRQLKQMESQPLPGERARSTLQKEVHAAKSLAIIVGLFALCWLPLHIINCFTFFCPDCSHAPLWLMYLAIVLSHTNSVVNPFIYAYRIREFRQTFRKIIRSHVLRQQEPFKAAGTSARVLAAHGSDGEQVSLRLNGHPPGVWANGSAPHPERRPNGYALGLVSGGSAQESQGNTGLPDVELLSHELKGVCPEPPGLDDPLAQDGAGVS

[4] = DRUGMATRIX: Calcium Channel Type L, Benzothiazepine radioligand binding (ligand: [3H] Diltiazem); type: cell membranes, Rattus norvegicus, Wistar, Brain, Membrane; conditions: Not Active = under 50% inhibition at 10 µM
[5] = DRUGMATRIX: Purinergic P2X radioligand binding (ligand: [3H] alpha, beta-Methylene-ATP); type: cell membranes, Oryctolagus cuniculus, New Zealand albino, Urinary bladder, Membrane; conditions: Not Active = under 50% inhibition at 10 µM

**Q.** What does the source list for `CCOC(N)=O`?
**A.** IC50 ([1]; hek293): Not Active; IC50 ([2]; hela): Not Active; IC50 [3]: Not Active; IC50 [4]: Not Active; Ki [4]: Not Active; IC50 [5]: Not Active; Ki [5]: Not Active

**Q.** With `COc1ccc(CN2CCNCC2)c(OC)c1OC` [TRIMETAZIDINE] as the compound, how does the IC50 ([1]; hek293) read?
**A.** Its IC50 is “Not Active”.

**Q.** What about the IC50 ([2]; hela) of the same compound?
**A.** Its IC50 is “Not Active”.

**Q.** What about the IC50 [3] of the same compound?
**A.** Its IC50 is “Not Active”.

**Q.** And the IC50 [4]?
**A.** Its IC50 is “Not Active”.

**Q.** And the Ki [4]?
**A.** The Ki was “Not Active”.

**Q.** And the IC50 [5]?
**A.** Its IC50 is “Not Active”.

**Q.** What about the Ki [5] of the same compound?
**A.** The Ki was “Not Active”.

**Q.** Which results are given for `CC(=O)O[C@H]1C[C@@H]2CC[C@@H]3[C@H](CC[C@@]4(C)[C@H]3C[C@H]([N+]3(C)CCCCC3)[C@@H]4OC(C)=O)[C@@]2(C)C[C@@H]1N1CCCCC1.[Br-]` [VECURONIUM BROMIDE]?
**A.** IC50 ([1]; hek293): Not Active; IC50 ([2]; hela): Not Active; IC50 [3]: Not Active; IC50 [4]: Not Active; Ki [4]: Not Active; IC50 [5]: Not Active; Ki [5]: Not Active

**Q.** Which IC50 ([1]; hek293) does the source give for `C[C@@H]1C[C@H]2[C@@H]3CCC4=CC(=O)C=C[C@]4(C)C3=CC[C@]2(C)[C@H]1C(=O)CN1CCN(c2cc(N3CCCC3)nc(N3CCCC3)n2)CC1` [TIRILAZAD] here?
**A.** The IC50 was “Not Active”.

**Q.** And the IC50 ([2]; hela)?
**A.** The IC50 was “Not Active”.

**Q.** And the IC50 [3]?
**A.** Its IC50 is “Not Active”.

**Q.** And the IC50 ([4]; read-out: IC50)?
**A.** The IC50 was 2690 nM.

**Q.** And the Ki ([4]; read-out: Ki)?
**A.** The Ki was 2400 nM.

**Q.** And the IC50 [5]?
**A.** The IC50 was “Not Active”.

**Q.** What about the Ki [5] of the same compound?
**A.** The Ki was “Not Active”.

**Q.** Which IC50 ([1]; hek293) does the source give for `CC(C)OC(=O)C(C)(C)Oc1ccc(C(=O)c2ccc(Cl)cc2)cc1` [FENOFIBRATE] here?
**A.** The IC50 was “Not Active”.

**Q.** What about the IC50 ([2]; hela) of the same compound?
**A.** The IC50 was “Not Active”.

**Q.** And the IC50 [3]?
**A.** Its IC50 is “Not Active”.

**Q.** For `C[C@@H](O)[C@H]1C(=O)N2C(C(=O)O)=C(S[C@@H]3CN[C@H](C(=O)N(C)C)C3)[C@H](C)[C@H]12` [MEROPENEM], which IC50 ([1]; hek293) is on record?
**A.** The IC50 was “Not Active”.

**Q.** What about the IC50 ([2]; hela) of the same compound?
**A.** The IC50 was “Not Active”.

**Q.** What about the IC50 [3] of the same compound?
**A.** The IC50 was “Not Active”.

**Q.** And the IC50 [4]?
**A.** The IC50 was “Not Active”.

**Q.** What about the Ki [4] of the same compound?
**A.** Its Ki is “Not Active”.

**Q.** What about the IC50 [5] of the same compound?
**A.** The IC50 was “Not Active”.

**Q.** And the Ki [5]?
**A.** The Ki was “Not Active”.

**Q.** Which IC50 ([1]; hek293) does the source give for `CC[C@@H](CO)NC(=O)[C@@H]1C=C2c3cccc4c3c(cn4C)C[C@H]2N(C)C1` [METHYSERGIDE] here?
**A.** Its IC50 is “Not Active”.

**Q.** What about the IC50 ([2]; read-out: IC50) of the same compound?
**A.** The IC50 was 162 nM.

**Q.** And the Ki [2]?
**A.** Its Ki is 75 nM.

**Q.** What about the IC50 [3] of the same compound?
**A.** The IC50 was “Not Active”.

**Q.** Which IC50 ([1]; hek293) does the source give for `CC(C)(C)NC[C@H](O)COc1nsnc1N1CCOCC1` [TIMOLOL] here?
**A.** The IC50 was “Not Active”.

**Q.** What about the IC50 ([2]; hela) of the same compound?
**A.** The IC50 was “Not Active”.

**Q.** What about the IC50 [3] of the same compound?
**A.** The IC50 was “Not Active”.

**Q.** What about the IC50 [4] of the same compound?
**A.** Its IC50 is “Not Active”.

**Q.** And the Ki [4]?
**A.** Its Ki is “Not Active”.

**Q.** What about the IC50 [5] of the same compound?
**A.** Its IC50 is “Not Active”.

**Q.** What about the Ki [5] of the same compound?
**A.** Its Ki is “Not Active”.

**Q.** For `CCN(CC)CC#CCOC(=O)C(O)(c1ccccc1)C1CCCCC1` (configuration not stated) [OXYBUTYNIN], which IC50 ([1]; hek293) is on record?
**A.** The IC50 was “Not Active”.

**Q.** What about the IC50 ([2]; hela) of the same compound?
**A.** The IC50 was “Not Active”.

**Q.** And the IC50 [3]?
**A.** The IC50 was “Not Active”.

**Q.** Which IC50 ([1]; read-out: IC50) does the source give for `O=c1[nH]c2ccccc2n1CCCN1CCC(n2c(=O)[nH]c3cc(Cl)ccc32)CC1` [DOMPERIDONE] here?
**A.** The IC50 was 1060 nM.

**Q.** What about the Ki [1] of the same compound?
**A.** Its Ki is 524 nM.

**Q.** And the IC50 ([2]; hela)?
**A.** The IC50 was “Not Active”.

**Q.** And the IC50 [3]?
**A.** The IC50 was “Not Active”.

**Q.** Which IC50 ([1]; hek293) does the source give for `CC1=C(CC(=O)O)c2cc(F)ccc2/C1=C\c1ccc(S(C)(=O)=O)cc1` [EXISULIND] here?
**A.** Its IC50 is “Not Active”.

**Q.** What about the IC50 ([2]; hela) of the same compound?
**A.** The IC50 was “Not Active”.

**Q.** What about the IC50 [3] of the same compound?
**A.** The IC50 was “Not Active”.

**Q.** And the IC50 [4]?
**A.** Its IC50 is “Not Active”.

**Q.** And the Ki [4]?
**A.** Its Ki is “Not Active”.

**Q.** What about the IC50 [5] of the same compound?
**A.** The IC50 was “Not Active”.

**Q.** What about the Ki [5] of the same compound?
**A.** Its Ki is “Not Active”.

**Q.** What does the source list for `COc1ncnc(NS(=O)(=O)c2ccc(N)cc2)c1OC` [SULFADOXINE]?
**A.** IC50 ([1]; hek293): Not Active; IC50 ([2]; hela): Not Active; IC50 [3]: Not Active; IC50 [4]: Not Active; Ki [4]: Not Active; IC50 [5]: Not Active; Ki [5]: Not Active

**Q.** For `CC(=O)Nc1nnc(S(N)(=O)=O)s1` [ACETAZOLAMIDE], which IC50 ([1]; hek293) is on record?
**A.** Its IC50 is “Not Active”.

**Q.** And the IC50 ([2]; hela)?
**A.** Its IC50 is “Not Active”.

**Q.** And the IC50 [3]?
**A.** Its IC50 is “Not Active”.

**Q.** For `CO[C@H]1C[C@@H]2CC[C@@H](C)[C@@](O)(O2)C(=O)C(=O)N2CCCC[C@H]2C(=O)O[C@H]([C@H](C)C[C@@H]2CC[C@@H](O)[C@H](OC)C2)CC(=O)[C@H](C)/C=C(\C)[C@@H](O)[C@@H](OC)C(=O)[C@H](C)C[C@H](C)/C=C/C=C/C=C/1C` [SIROLIMUS], which IC50 ([1]; hek293) is on record?
**A.** Its IC50 is “Not Active”.

**Q.** And the IC50 ([2]; hela)?
**A.** The IC50 was “Not Active”.

**Q.** What about the IC50 [3] of the same compound?
**A.** Its IC50 is “Not Active”.

**Q.** And the IC50 [4]?
**A.** The IC50 was “Not Active”.

**Q.** And the Ki [4]?
**A.** Its Ki is “Not Active”.

**Q.** And the IC50 [5]?
**A.** The IC50 was “Not Active”.

**Q.** What about the Ki [5] of the same compound?
**A.** Its Ki is “Not Active”.

**Q.** Which IC50 ([1]; read-out: IC50) does the source give for `OCCN1CCN(CCCN2c3ccccc3Sc3ccc(C(F)(F)F)cc32)CC1` [FLUPHENAZINE] here?
**A.** Its IC50 is 33 nM.

**Q.** What about the Ki [1] of the same compound?
**A.** Its Ki is 16 nM.

**Q.** What about the IC50 ([2]; read-out: IC50) of the same compound?
**A.** The IC50 was 52 nM.

**Q.** What about the Ki [2] of the same compound?
**A.** Its Ki is 24 nM.

**Q.** What about the IC50 [3] of the same compound?
**A.** The IC50 was “Not Active”.

**Q.** Which results are given for `O=c1n(CCCN2CCN(c3cccc(Cl)c3)CC2)nc2ccccn12` [TRAZODONE]?
**A.** IC50 ([1]; read-out: IC50): 265 nM; Ki [1]: 130 nM; IC50 ([2]; hela): Not Active; IC50 [3]: Not Active

**Q.** With `CN1C2CCCC1CC(NC(=O)c1nn(C)c3ccccc13)C2` (configuration not stated) [GRANISETRON] as the compound, how does the IC50 ([1]; hek293) read?
**A.** Its IC50 is “Not Active”.

**Q.** And the IC50 ([2]; hela)?
**A.** The IC50 was “Not Active”.

**Q.** What about the IC50 [3] of the same compound?
**A.** Its IC50 is “Not Active”.
